Converted amounts (≈) assume the structure as drawn.
Tests used:
Trypanosoma cruzi [1] = test: (§1) DNDI: Chagas in Vitro; type: functional, organism-based, Tulahuen C4 (LacZ)
Trypanosoma cruzi [2] = test: as §1; type: functional, Tulahuen C4 (LacZ)
[3] = DNDI: Cytotoxicity against L-6 rat myoblasts from skeletal musclE; settings: L6 rat skeletal muscle myoblasts, IC50
[4] = DNDI: Lipophilicity (gLogD) at pH 3; settings: buffer
[5] = DNDI: Lipophilicity (gLogD) at pH 7.4; settings: buffer
[6] = DNDI: Solubility in 0.01M HCl at pH 2 determined by nephelometry
[7] = DNDI: Solubility in phosphate buffer at pH 6.5 determined by nephelometry
in vitro [8] = settings: human, microsomes
in vitro [9] = settings: human, microsomes; remark: listed apart in the source
Cytochrome P450 3A4 = Cytochrome P450 3A4 (Homo sapiens, UniProt P08684)
in vitro [10] = settings: human, microsomes; remark: listed apart in the source
[11] = Trypanosoma cruzi, Tulahuen C4 (LacZ)

Cytochrome P450 3A4, sequence (P08684 whole entry): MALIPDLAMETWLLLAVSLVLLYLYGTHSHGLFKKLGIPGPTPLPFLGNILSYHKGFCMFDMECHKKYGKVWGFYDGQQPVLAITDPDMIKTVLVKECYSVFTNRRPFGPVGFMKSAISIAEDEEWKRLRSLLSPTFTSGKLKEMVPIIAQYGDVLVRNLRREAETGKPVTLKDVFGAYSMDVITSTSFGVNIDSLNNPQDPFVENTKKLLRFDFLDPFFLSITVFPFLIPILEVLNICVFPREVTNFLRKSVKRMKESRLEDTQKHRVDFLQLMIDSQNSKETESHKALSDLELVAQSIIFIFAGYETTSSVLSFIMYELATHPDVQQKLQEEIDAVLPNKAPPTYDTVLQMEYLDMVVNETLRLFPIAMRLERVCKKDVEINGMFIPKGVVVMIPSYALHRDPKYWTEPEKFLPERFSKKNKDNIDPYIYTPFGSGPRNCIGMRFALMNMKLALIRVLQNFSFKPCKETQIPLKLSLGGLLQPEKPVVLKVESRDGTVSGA

| IC50 (Trypanosoma cruzi [1]; [11]) [nM] | IC90 (Trypanosoma cruzi [2]; [11]) [nM] | solubility kinetic [6] [µg/mL] | solubility kinetic [7] [µg/mL] | SMILES | IC50 [3] [nM] | further results |
| --- | --- | --- | --- | --- | --- | --- |
| 15 | 27 | > 100 | < 1.6 | FC(F)(F)c1ccc(N(c2cccnc2)C2CCN(c3ccc(Cl)cc3)CC2)cc1 | > 100000 | IC50 (Trypanosoma cruzi [1]): 22 nM; IC90 (Trypanosoma cruzi [2]): 25 nM; chromatographic logD ([4]; pH 3): > 5.3; chromatographic logD ([5]; pH 7.4): > 5.3; half-life (in vitro [8]): 51 min; microsomal CLint (in vitro [9]): 34 µL/min/mg |
| – | 32 | – | – | FC(F)(F)c1ccc(N(c2cccnc2)C2CCN(c3ccc(C(F)(F)F)nc3)CC2)cc1 | – | – |
| 24 | 51 | – | – | FC(F)(F)c1ccc(N(c2cccnc2)C2CCN(c3ccccn3)CC2)cc1 | – | – |
| 39 | 83 | – | – | FC(F)(F)c1ccc(N(c2cccnc2)C2CCN(c3ccc(Cl)cn3)CC2)cc1 | – | – |
| 2.18 | 5.7 | > 100 | < 1.6 | CS(=O)(=O)c1ccc(N2CCC(N(c3ccc(Cl)cc3)c3cccnc3)CC2)cc1 | – | chromatographic logD ([4]; pH 3): 2.3; chromatographic logD ([5]; pH 7.4): 3.9; IC50 (Cytochrome P450 3A4): 2000 nM; half-life (in vitro [8]): 13.1 min; hepatic extraction ratio (in vitro [10]): 0.88; microsomal CLint (in vitro [9]): 132 µL/min/mg |
| 2.35 | 6.6 | – | 1.6 (≈ 3.7 µM) | CS(=O)(=O)c1ccc(N2CCC(N(c3ccc(C#N)cc3)c3cccnc3)CC2)cc1 | > 100000 | chromatographic logD ([4]; pH 3): 2.7; chromatographic logD ([5]; pH 7.4): 3; half-life (in vitro [8]): 111 min; hepatic extraction ratio (in vitro [10]): 0.47; microsomal CLint (in vitro [9]): 15.6 µL/min/mg |
| 7.46 | 16.6 | – | – | O=C(c1ccccc1)N1CCC(N(c2ccc(C(F)(F)F)cc2)c2cccnc2)CC1 | – | – |
| 15 | 36 | – | – | FC(F)(F)c1ccc(N(c2cccnc2)C2CCN(c3ccccc3C(F)(F)F)CC2)cc1 | – | – |
| 2 | 9 | – | – | O=C(c1c(F)cccc1F)N1CCC(N(c2ccc(C(F)(F)F)cc2)c2cccnc2)CC1 | 48900 | – |
| 14 | 30 | > 100 | < 1.6 | FC(F)(F)c1ccc(N(c2cccnc2)C2CCN(c3ccccc3)CC2)cc1 | 57400 | chromatographic logD ([4]; pH 3): 4.7; chromatographic logD ([5]; pH 7.4): > 5.3; half-life (in vitro [8]): 29.7 min; microsomal CLint (in vitro [9]): 58.4 µL/min/mg |
| – | 31 | > 100 | 1.6 (≈ 3.96 µM) | FC(F)(F)c1ccc(N(c2cccnc2)C2CCN(c3nccs3)CC2)cc1 | 41500 | chromatographic logD ([4]; pH 3): 3.1; chromatographic logD ([5]; pH 7.4): 4.3; half-life (in vitro [8]): 10.8 min; microsomal CLint (in vitro [9]): 161 µL/min/mg |
| 210 | 312 | – | – | FC(F)(F)c1ccc(N(c2cccnc2)C2CCN(c3cccc(C(F)(F)F)c3)CC2)cc1 | > 100000 | – |
| – | – | – | – | FC(F)(F)c1ccc(N(c2cccnc2)C2CCN(c3ccc(C(F)(F)F)cn3)CC2)cc1 | – | IC50 (Trypanosoma cruzi [1]): 19.7 nM; IC90 (Trypanosoma cruzi [2]): > 100 nM |
| 22 | 28 | > 100 | < 1.6 | Fc1cnc(N2CCC(N(c3ccc(C(F)(F)F)cc3)c3cccnc3)CC2)nc1 | 53100 | chromatographic logD ([4]; pH 3): 4.2; chromatographic logD ([5]; pH 7.4): 4.9; half-life (in vitro [8]): 49 min; microsomal CLint (in vitro [9]): 36 µL/min/mg |
| 17 | 23 | > 100 | 1.6 (≈ 4.01 µM) | FC(F)(F)c1ccc(N(c2cccnc2)C2CCN(c3ncccn3)CC2)cc1 | 53900 | chromatographic logD ([4]; pH 3): 3.5; chromatographic logD ([5]; pH 7.4): 4.4; half-life (in vitro [8]): 8.8 min; microsomal CLint (in vitro [9]): 196 µL/min/mg |
| 151 | 340 | – | – | Cc1ccc(N2CCC(N(c3ccc(C(F)(F)F)cc3)c3cccnc3)CC2)cn1 | > 100000 | – |
| 9 | 27 | – | – | Cc1cncc(N2CCC(N(c3ccc(C(F)(F)F)cc3)c3cccnc3)CC2)c1 | – | – |
| 10 | 28 | – | – | CN(C)S(=O)(=O)c1ccccc1N1CCC(N(c2ccc(C#N)cc2)c2cccnc2)CC1 | – | – |
| 1.03 | 3.26 | – | – | CC(C)(C)OC(=O)N1CCC(N(c2ccc(Cl)cc2)c2cccnc2)CC1 | 52800 | – |
| 5.12 | 9.9 | – | – | CC(C)(C)OC(=O)N1CCC(N(c2ccc(C(F)(F)F)cc2)c2cccnc2)CC1 | 22200 | – |
| 6 | 11 | – | – | CN(C)S(=O)(=O)c1cc(C(F)(F)F)ccc1N1CCC(N(c2ccc(C#N)cc2)c2cccnc2)CC1 | > 100000 | – |
| 2 | 4 | – | – | N#Cc1ccc(N(c2cccnc2)C2CCN(c3ccc(C(F)(F)F)cc3C#N)CC2)cc1 | > 100000 | – |
| 7 | 11 | < 1.6 | 3.1 (≈ 6.65 µM) | FC(F)(F)c1ccc(N2CCC(N(c3ccc(C(F)(F)F)cc3)c3cncnc3)CC2)cc1 | 76500 | chromatographic logD ([4]; pH 3): > 5.3; chromatographic logD ([5]; pH 7.4): 5.2; half-life (in vitro [8]): 25.7 min; microsomal CLint (in vitro [9]): 67.5 µL/min/mg |

| SMILES | IC50 (Trypanosoma cruzi [1]; [11]) [nM] | IC90 (Trypanosoma cruzi [2]; [11]) [nM] | solubility kinetic [6] [µg/mL] | solubility kinetic [7] [µg/mL] | IC50 [3] [nM] | further results |
| --- | --- | --- | --- | --- | --- | --- |
| CC(C)(C)N1CCC(N(c2ccc(C(F)(F)F)cc2)c2cccnc2)CC1 | 603 | 1070 | – | – | – | – |
| FC(F)(F)c1ccc(N(c2cccnc2)C2CCN(Cc3ccccc3C(F)(F)F)CC2)cc1 | 9 | 36 | > 100 | 1.6 (≈ 3.34 µM) | – | chromatographic logD ([4]; pH 3, logD): 2.7; chromatographic logD ([5]; pH 7.4, logD): > 5.3; half-life (in vitro [8]; t (1 / 2)): 18.7 min; microsomal CLint (in vitro [9]; CLint): 92.8 µL/min/mg |
| Fc1ccccc1CN1CCC(N(c2ccc(C(F)(F)F)cc2)c2cccnc2)CC1 | 21 | 40 | – | – | – | – |
| Cc1ccccc1CN1CCC(N(c2ccc(C(F)(F)F)cc2)c2cccnc2)CC1 | 7 | 19 | > 100 | – | – | chromatographic logD ([4]; pH 3, logD): 2; chromatographic logD ([5]; pH 7.4, logD): > 5.3; half-life (in vitro [8]; t (1 / 2)): 14.1 min; microsomal CLint (in vitro [9]; CLint): 123 µL/min/mg |
| FC(F)(F)c1ccc(N(c2cccnc2)C2CCN(Cc3cccc(C(F)(F)F)c3)CC2)cc1 | 38 | 72 | > 100 | 3.1 (≈ 6.47 µM) | 52100 | chromatographic logD ([4]; pH 3, logD): 2.5; chromatographic logD ([5]; pH 7.4, logD): > 5.3; half-life (in vitro [8]; t (1 / 2)): 26 min; microsomal CLint (in vitro [9]; CLint): 66 µL/min/mg |
| Cc1ccc(CN2CCC(N(c3ccc(C(F)(F)F)cc3)c3cccnc3)CC2)cc1 | 67 | > 100 | – | – | 45600 | – |
| FC(F)(F)c1ccc(CN2CCC(N(c3ccc(C(F)(F)F)cc3)c3cccnc3)CC2)cc1 | 33 | 80 | – | – | – | – |
| COc1cccc(CN2CCC(N(c3ccc(C(F)(F)F)cc3)c3cccnc3)CC2)c1 | 56 | 90 | – | – | 36800 | – |
| COc1ccc(CN2CCC(N(c3ccc(C(F)(F)F)cc3)c3cccnc3)CC2)cc1 | 57 | 92 | > 100 | 6.3 (≈ 14.3 µM) | 16300 | chromatographic logD ([4]; pH 3, logD): 2; chromatographic logD ([5]; pH 7.4, logD): 4.9; half-life (in vitro [8]; t (1 / 2)): 31 min; microsomal CLint (in vitro [9]; CLint): 56 µL/min/mg |
| Cc1cccc(CN2CCC(N(c3ccc(C(F)(F)F)cc3)c3cccnc3)CC2)c1 | 44 | 79 | – | – | 42900 | – |
| CC(C)(O)CN1CCC(N(c2ccc(C(F)(F)F)cc2)c2cccnc2)CC1 | 11 | 30 | – | – | – | – |
| CC(C)(O)CN1CCC(N(c2ccc(C#N)cc2)c2cccnc2)CC1 | 27 | 71 | > 100 | > 100 | > 100000 | chromatographic logD ([4]; pH 3, logD): 0.7; chromatographic logD ([5]; pH 7.4, logD): 2.2; half-life (in vitro [8]; t (1 / 2)): 142 min; microsomal CLint (in vitro [9]; CLint): 12.2 µL/min/mg |
